Data reported in patent US20250325529A1, “INHIBITORS OF FATTY ACID BINDING PROTEINS (FABPs), METHODS OF USE AND METHODS OF MAKING” (Celloram, inc., priority 2024, published 2025).
Entries after “also recorded” stand apart in the source; their conditions may differ. Like-named read-outs stand apart in the source and are kept apart here.

What was measured:
[1] = Tissue distribution in C57BL/6 male mice; type: in vivo, C57BL/6 mice; conditions: oral 10 mg/kg; for PK parameters / concentration at 0.5 h / concentration at 2 h / concentration at 4 h / concentration at 8 h / Kp: mice; for concentration at 0.5 h / concentration at 2 h / concentration at 4 h / concentration at 8 h / Kp: male, C57BL/6, mouse; for Kp: read-out: Tissue/Plasma ratio (Kp)
[2] = system: Salmonella typhimurium tester strains TA98, TA100, TA1535, TA1537 and Escherichia coli tester strain WP2 uvrA (pKM101); assay: Ames test, overall conclusion for the tested strains; type: cell-based; conditions: presence and absence of S9
Procedure: (§1) PD152 (compound 2) was tested for genotoxic and cytotoxic side effects by Ames test. The Ames test is a Bacterial Reverse Mutation Test of mutagenicity that utilizes Salmonella typhimurium tester strains TA98, TA100, TA1535, TA1537 and Escherichia coli tester strain WP2 uvrA (pKM101), both in the presence and absence of S9.
(§2) The compound PD152 was tested at 10 concentrations (0.032-1000 μg/plate) in the presence of, or absence of, the hepatic enzyme S9.
(§3) The aniline FABP4/5 inhibitor compound, 2-((2-((2,4-dichloro-5-isopropoxyphenyl)amino)-2-oxoethyl)thio)-2-methylpropanoic acid (compound “B104” as disclosed in WO2023043803A1) also was tested for genotoxic and cytotoxic side effects by Ames test. B104 was tested using the Salmonella typhimurium tester stains TA98, TA100, TA1535, and TA1537, both in the presence and absence of the hepatic enzyme S9, at 5 concentrations (1.5-64 μg/plate).

OVCAR8 cells = assay: Proliferation assay (Incucyte confluency), OVCAR8; type: cell-based; conditions: Homo sapiens, OVCAR-8, 96 h, 4 days, read-out: IC50, inhibition of OVCAR8 proliferation
Procedure: COS-7, MDA-MB-231, and HepG2, were cultured in Dulbecco's modified Eagle's medium (DMEM) supplemented with 10% fetal bovine serum (Invitrogen Life Sciences, Carlsbad, CA). BT-549, OVCAR5 and OVCAR8 cells were cultured in L-Glutamine containing RPMI medium supplemented with 10% fetal calf serum (Invitrogen Life Sciences, Carlsbad, CA). The primary Human Mammary Epithelial Cells (HMEC) were cultured in mammary epithelial cell complete medium (basal medium plus rH-Insulin (5 μg/mL); L-Glutamine (6 mM); Epinephrine (1 μM); Apo-Transferrin (5 μg/mL); rH-TGF-α (0.5 ng/mL); ExtractP (0.4%); Hydrocortisone Hemisuccinate (100 ng/mL)).
2000 cells were plated in each well of 96-well plate. The next day cells were treated with compounds and incubated in Incucyte for 4 days. Images taken every 4 hours for the duration of the time were analyzed to calculate percentage of confluency in response to the treatments. Growth inhibition was calculated as 1—(percentage of viable cells out of untreated cells).

PPARδ = PPARδ (Homo sapiens (Human), UniProt Q03181); assay: Transcriptional activation assay in COS7 cells, PPARδ; type: cell-based; conditions: PPRE luciferase reporter, PD151 and PD152 at 10 μM
Chain of PPARδ (Q03181 whole entry, species assumed): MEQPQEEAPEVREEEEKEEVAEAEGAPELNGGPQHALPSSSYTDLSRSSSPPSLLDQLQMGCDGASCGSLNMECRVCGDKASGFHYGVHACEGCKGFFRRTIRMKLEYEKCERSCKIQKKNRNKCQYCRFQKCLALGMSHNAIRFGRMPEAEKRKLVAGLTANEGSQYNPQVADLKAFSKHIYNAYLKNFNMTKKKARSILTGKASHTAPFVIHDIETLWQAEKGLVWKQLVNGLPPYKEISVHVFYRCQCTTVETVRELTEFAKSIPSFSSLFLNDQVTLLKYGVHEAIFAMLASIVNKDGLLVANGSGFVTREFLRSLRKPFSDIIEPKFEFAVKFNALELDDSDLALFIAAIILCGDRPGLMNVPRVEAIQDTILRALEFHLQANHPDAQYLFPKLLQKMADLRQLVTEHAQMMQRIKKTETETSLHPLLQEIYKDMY
Procedure: COS-7 were cultured in 6-well plates and co-transfected with either a luciferase reporter driven by 3 copies of a PPRE and expression vector for either PPARδ, PPARα or PPARγ together with a vector harboring cDNA for β-galactosidase, serving as a transfection control. To test whether FABP4 or FABP5 mediate activation of their cognate receptors PPARγ and PPARδ, respectively, cells were also co-transfected with a plasmid harboring sequence of either FABP4 or FABP5. 18 h post-transfection, cells were placed in a serum-free medium and treated with agonist/compound. 18 h. later, cells were lysed, luciferase activity was assayed (Promega, WI, USA) and corrected for transfection efficiency by the activity of β-galactosidase.
Transcriptional activation assays were carried out utilizing COS7 cells as described above.

[3] = system: Salmonella typhimurium tester strain TA1535; assay: Ames test (Bacterial Reverse Mutation Test), TA1535; type: cell-based
Procedure: as §1, §2, §3

[4] = brain, read-out: Brain concentration
[5] = liver, read-out: Liver concentration
[6] = pancreas, read-out: Pancreas concentration
[7] = plasma, read-out: Plasma concentration
[8] = skeletal muscle, read-out: Skeletal muscle concentration
[9] = white adipose tissue, read-out: Adipose tissue concentration
[10] = TA1535, absence of S9, 0.0312 μg/plate
[11] = TA1535, absence of S9, 0.1 μg/plate
[12] = TA1535, absence of S9, 0.316 μg/plate
[13] = TA1535, absence of S9, 1 μg/plate
[14] = TA1535, absence of S9, 3.16 μg/plate
[15] = TA1535, absence of S9, 10 μg/plate
[16] = TA1535, absence of S9, 31.6 μg/plate
[17] = TA1535, absence of S9, 100 μg/plate
[18] = TA1535, absence of S9, 316 μg/plate
[19] = TA1535, absence of S9, 1000 μg/plate
[20] = TA1535, presence of S9, 0.0312 μg/plate
[21] = TA1535, presence of S9, 0.1 μg/plate
[22] = TA1535, presence of S9, 0.316 μg/plate
[23] = TA1535, presence of S9, 1 μg/plate
[24] = TA1535, presence of S9, 3.16 μg/plate
[25] = TA1535, presence of S9, 10 μg/plate
[26] = TA1535, presence of S9, 31.6 μg/plate
[27] = TA1535, presence of S9, 100 μg/plate
[28] = TA1535, presence of S9, 316 μg/plate
[29] = TA1535, presence of S9, 1000 μg/plate

CC(C)Oc1nc(NC(=O)CSCC(=O)O)c(Cl)cc1Cl [PD152, 2-((2-((3,5-dichloro-6-isopropoxypyridin-2-yl)amino)-2-oxoethyl)thio)acetic acid]
PK parameters ([1]; Adipose tissue): 6655.32 ng·h/g | Detection in the brain (blood-brain barrier crossing) ([1]; C57BL/6 male mice): Only traces | Mean peak adipose tissue concentration ([1]; C57BL/6 male mice): 2109.6 ng/g | Mean peak liver concentration ([1]; C57BL/6 male mice): 3893.5 ng/g | Mean peak pancreas concentration ([1]; C57BL/6 male mice): 215.09 ng/g | Mean peak plasma concentration ([1]; C57BL/6 male mice): 3929.88 ng/mL | Mean peak skeletal muscle concentration ([1]; C57BL/6 male mice): 139.45 ng/g | PK parameters ([1]; Liver): 6704.59 ng·h/g | PK parameters ([1]; Pancreas): 352.54 ng·h/g | PK parameters ([1]; Skeletal Muscle): 270.09 ng·h/g | concentration at 0.5 h [1, 4]: 14.8 ng/g | concentration at 2 h [1, 4]: 0 ng/g | concentration at 4 h [1, 4]: 0 ng/g | concentration at 8 h [1, 4]: 0 ng/g | concentration at 0.5 h [1, 5]: 3890 ng/g | concentration at 2 h [1, 5]: 419 ng/g | concentration at 4 h [1, 5]: 534 ng/g | concentration at 8 h [1, 5]: 238 ng/g | concentration at 0.5 h [1, 6]: 215 ng/g | concentration at 2 h [1, 6]: 28.2 ng/g | concentration at 4 h [1, 6]: 20 ng/g | concentration at 8 h [1, 6]: 14 ng/g | concentration at 0.5 h [1, 7]: 3930 ng/mL | concentration at 2 h [1, 7]: 236 ng/mL | concentration at 4 h [1, 7]: 210 ng/mL | concentration at 8 h [1, 7]: 149 ng/mL | concentration at 0.5 h [1, 8]: 139 ng/g | concentration at 2 h [1, 8]: 26.5 ng/g | concentration at 4 h [1, 8]: 14 ng/g | concentration at 8 h [1, 8]: 21.1 ng/g | concentration at 0.5 h [1, 9]: 2110 ng/g | concentration at 2 h [1, 9]: 1020 ng/g | concentration at 4 h [1, 9]: 520 ng/g | concentration at 8 h [1, 9]: 596 ng/g | Kp ([1]; Adipose tissue): 1.3 | Kp ([1]; Liver): 1.3 | Kp ([1]; Pancreas): 0.07 | Kp ([1]; Skeletal Muscle): 0.05 | Cytotoxicity to the tested strains [2]: non-cytotoxic | Mutagenicity in the Ames test [2]: non-mutagenic | IC50 (OVCAR8 cells): 0.665 µM | Activation of transcription by PPARδ (PPARδ): None of these tested compounds activated; also recorded: none of the tested compounds PD151 and PD152 activated transcription | Fold increase [3, 10]: 1 | Mean number of revertants [3, 10]: 3 | Fold increase [3, 11]: 1 | Mean number of revertants [3, 11]: 3 | Fold increase [3, 12]: 1 | Mean number of revertants [3, 12]: 3 | Fold increase [3, 13]: 1 | Mean number of revertants [3, 13]: 3 | Fold increase [3, 14]: 1 | Mean number of revertants [3, 14]: 3 | Fold increase [3, 15]: 1 | Mean number of revertants [3, 15]: 4 | Fold increase [3, 16]: 1 | Mean number of revertants [3, 16]: 4 | Fold increase [3, 17]: 1 | Mean number of revertants [3, 17]: 4 | Fold increase [3, 18]: 1 | Mean number of revertants [3, 18]: 3 | Fold increase [3, 19]: 1 | Mean number of revertants [3, 19]: 3 | Fold increase [3, 20]: 1 | Mean number of revertants [3, 20]: 3 | Fold increase [3, 21]: 1 | Mean number of revertants [3, 21]: 4 | Fold increase [3, 22]: 1 | Mean number of revertants [3, 22]: 3 | Fold increase [3, 23]: 1 | Mean number of revertants [3, 23]: 4 | Fold increase [3, 24]: 1 | Mean number of revertants [3, 24]: 4 | Fold increase [3, 25]: 1 | Mean number of revertants [3, 25]: 4 | Fold increase [3, 26]: 1 | Mean number of revertants [3, 26]: 4 | Fold increase [3, 27]: 1 | Mean number of revertants [3, 27]: 4 | Fold increase [3, 28]: 1 | Mean number of revertants [3, 28]: 4 | Fold increase [3, 29]: 1 | Mean number of revertants [3, 29]: 4
